This is an account of results in patent US8420820B2, “Pyrrolopyridinylpyrimidin-2-ylamine derivatives” (Merck Patent GmbH, priority 2008, dated 2013).

pIC50: −log10 of the molar value.

Usually pIC50 stands for the negative decadic logarithm of the IC50, by convention in mol/L.

For one experiment, the target named is T1, PDK1 (Homo sapiens, UniProt O15530).
T1 construct: His6 (N)
As to the kind of experiment: Test for the inhibition of PDK1 (flashplate, 33P-ATP). It counts as biochemical. The settings on record: His6-PDK1 3.4 nM, 4 μM ATP, 30° C., 60 min. The procedure: The experimental batches are carried out in a flashplate system with 384 wells/microtitration plate.
In each case, the PDK1 sample His6-PDK1(SEQ ID NO: 2)(1-50)(3.4 nM), the PDK1 substrate biotin-bA-bA-[…] (SEQ ID NO: 3) (400 nM), 4 μM ATP (with 0.2 μCi of ^33P-ATP/well) and the test substance in 50 μl of conventional experimental solution per well are incubated at 30° C. for 60 min. The test substances are employed in corresponding concentrations (if desired in a dilution series). The control is carried out without test substance. The reaction is stopped using standard methods and washed. The activity of the kinase is measured via the incorporated radioactivity in top count. In order to determine the non-specific kinase reaction (blank value), the experimental batches are carried out in the presence of 100 nM staurosporin.
The radioactivity (decompositions per minute) of the blank value (no use of test substance in the presence of staurosporin) is subtracted from all other radioactivity values. The controls (kinase activity without test substance) are set equal to 100 percent and all other radioactivity values (after subtracting the blank value) are expressed set in relation thereto (for example in % of the control).
IC50 values (50% inhibition) are determined with the aid of statistics programmes, such as, for example, RS1.

For experiment [1], the system named is PDK1 kinase activity in PC3 cells (phospho-T308-PKB). Nature of the experiment: Cellular testing of PDK1 kinase inhibitors in PC3 cells (Luminex, phospho-T308-PKB). It counts as cell-based. The settings on record: Homo sapiens, PC-3, 0.5 h, 30 min with test substance, serum-free, phospho-T308-PKB by Luminex, read-out: IC50 [PC3 P-PKB Thr308]. How it is done: Method for the Cellular Testing of PDK1 Kinase Inhibitors in PC3 Cells.
The cellular assay for the determination of the PDK1 kinase activity is carried out as a Luminex assay in the 96-well format. PC3 cells are sown at 20,000 cells per well in 100 μl of medium (45% of […]/45% of Ham's F12/10% of FCS) and incubated on the following day for 30 min with a serial dilution of the test substance (7 concentrations) under serum-free conditions. The cells are subsequently lysed using 90 μl of lysis buffer (20 mM tris/HCl pH 8.0, 150 mM NaCl, 1% of NP40, 10% of glycerol, 1% of phosphatase inhibitor I, 1% of phosphatase inhibitor II, 0.1% of protease inhibitor cocktail III, 0.01% of benzonase) per well, and the lysates are separated off from insoluble cell constituents by means of centrifugation through a 96-well filter plate (0.65 μm). The lysates are incubated overnight at 4° C. with shaking with Luminex beads to which an anti-total PKB antibody is coupled. The detection is carried out on the following day by addition of a phospho-T308-PKB antibody and a species-specific […] secondary antibody. The detection of phospho-T308-PKB is carried out by measurement in a Luminex100 instrument by determination of 100 events per cavity in a measurement time of 60 sec. As pharmacological blank, the signals obtained from cells which have been treated with 10 μM staurosporin are subtracted from all other batches. The control value used for maximum phosphorylation of PKB on T308 are the signals from cells which have only been treated with the solvent (0.3% of DMSO). The values of the batches treated with test substance are calculated therefrom as percentage of control, and IC50 values are determined by means of RS1.

T1 sequence (O15530 51-556): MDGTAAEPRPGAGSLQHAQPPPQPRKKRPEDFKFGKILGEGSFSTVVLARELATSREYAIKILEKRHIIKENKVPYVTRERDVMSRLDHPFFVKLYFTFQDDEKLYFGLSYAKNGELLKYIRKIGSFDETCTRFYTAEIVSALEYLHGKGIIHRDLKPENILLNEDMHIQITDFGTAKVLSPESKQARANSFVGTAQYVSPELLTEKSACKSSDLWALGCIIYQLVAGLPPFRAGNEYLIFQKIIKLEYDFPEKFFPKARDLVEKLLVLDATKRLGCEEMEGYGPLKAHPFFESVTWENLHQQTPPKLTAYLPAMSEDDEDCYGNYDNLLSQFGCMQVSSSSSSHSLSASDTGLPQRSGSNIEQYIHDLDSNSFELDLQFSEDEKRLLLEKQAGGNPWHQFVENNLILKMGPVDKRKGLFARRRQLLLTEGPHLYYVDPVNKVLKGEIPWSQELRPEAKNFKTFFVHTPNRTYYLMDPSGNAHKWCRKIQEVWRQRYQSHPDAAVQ

For `CCCCc1cc(-c2c[nH]c3ncc(-c4cnn(CCN(C)C)c4)cc23)nc(N)n1` [Compound A85, 4-Butyl-6-{5-[1-(2-dimethylaminoethyl)-1H-pyrazol-4-yl]-1H-pyrrolo[2,3-b]-pyridin-3-yl}pyrimidin-2-ylamine], the results for the pIC50 (against PDK1; in experiment [1]) were 6.00 to 8.00 and 5.00 to 6.00, respectively.

Turning to `CCCCc1cc(-c2c[nH]c3ncc(-c4cnn(C5CCN(C(C)=O)CC5)c4)cc23)nc(N)n1` [Compound A86, 1-(4-{4-[3-(2-Amino-6-butylpyrimidin-4-yl)-1H-pyrrolo[2,3-b]pyridin-5-yl]-pyrazol-1-yl}piperidin-1-yl)ethanone], the pIC50 is 6.00 to 8.00 at PDK1 and 5.00 to 6.00 in experiment [1].

Regarding `CCCCc1cc(-c2c[nH]c3ncc(-c4cnn(C5CCNCC5)c4)cc23)nc(N)n1` [Compound A87, 4-Butyl-6-[5-(1-piperidin-4-yl-1H-pyrazol-4-yl)-1H-pyrrolo[2,3-b]pyridin-3-yl]-pyrimidin-2-ylamine], the results for the pIC50 (on PDK1; in experiment [1]) were 6.00 to 8.00 and 5.00 to 6.00, respectively.

On to `CCCCc1cc(-c2c[nH]c3ncc(-c4cnn(CCO)c4)cc23)nc(N)n1` [Compound A88, 2-{4-[3-(2-Amino-6-butylpyrimidin-4-yl)-1H-pyrrolo[2,3-b]pyridin-5-yl]pyrazol-1-yl}ethanol], for which the negative logarithm of the IC50 (pIC50) against PDK1 is 6.00 to 8.00; in experiment [1], 5.00 to 6.00.

With `CCCCc1cc(-c2c[nH]c3ncc(-c4cnn(C5CCN(C)CC5)c4)cc23)nc(N)n1` [Compound A89, 4-Butyl-6-{5-[1-(1-methylpiperidin-4-yl)-1H-pyrazol-4-yl]-1H-pyrrolo[2,3-b]-pyridin-3-yl}pyrimidin-2-ylamine], the pIC50 against PDK1 was 6.00 to 8.00; in experiment [1], 5.00 to 6.00.

Turning to `CC(=O)NCCCc1cc(-c2c[nH]c3ncc(-c4cnn(C(C)C)c4)cc23)nc(N)n1` [Compound A97, N-(3-{2-Amino-6-[5-(1-isopropyl-1H-pyrazol-4-yl)-1H-pyrrolo[2,3-b]pyridin-3-yl]pyrimidin-4-yl}propyl)acetamide], the negative logarithm of the IC50 (pIC50) is 6.00 to 8.00 against PDK1 and 4.70 to 5.00 in experiment [1].

In the case of `CCc1cc(-c2c[nH]c3ncc(-c4cnn(Cc5cccc(F)c5)c4)cc23)nc(N)n1` [Compound A98, 4-Ethyl-6-{5-[1-(3-fluorobenzyl)-1H-pyrazol-4-yl]-1H-pyrrolo[2,3-b]pyridin-3-yl}pyrimidin-2-ylamine], the pIC50 is 6.00 to 8.00 at PDK1 and 5.00 to 6.00 in experiment [1].

In the case of `CCc1cc(-c2c[nH]c3ncc(-c4cnn(Cc5ccc(F)c(F)c5)c4)cc23)nc(N)n1` [Compound A99, 4-{5-[1-(3,4-Difluorobenzyl)-1H-pyrazol-4-yl]-1H-pyrrolo[2,3-b]pyridin-3-yl}-6-ethylpyrimidin-2-ylamine], the results for the pIC50 (against PDK1; in experiment [1]) were 6.00 to 8.00 and 4.70 to 5.00, respectively.

For `CC(C)n1cc(-c2cnc3[nH]cc(-c4cc(CCC(=O)N(C)C)nc(N)n4)c3c2)cn1` [Compound A101, 3-{2-Amino-6-[5-(1-isopropyl-1H-pyrazol-4-yl)-1H-pyrrolo[2,3-b]pyridin-3-yl]-pyrimidin-4-yl}-N,N-dimethylpropionamide], the negative logarithm of the IC50 (pIC50) at PDK1 was 6.00 to 8.00; in experiment [1], 4.70 to 5.00.

`CCC(O)c1cc(-c2c[nH]c3ncc(-c4cnn(C(C)C)c4)cc23)nc(N)n1` (stereo not drawn) [Compound A103, 1-{2-Amino-6-[5-(1-isopropyl-1H-pyrazol-4-yl)-1H-pyrrolo[2,3-b]pyridin-3-yl]-pyrimidin-4-yl}propan-1-ol]: the figures for the negative logarithm of the IC50 (pIC50) (on PDK1; in experiment [1]) were 6.00 to 8.00 and 4.70 to 5.00, respectively.

For the compound `CC(C)CC(O)c1cc(-c2c[nH]c3ncc(-c4cnn(C(C)C)c4)cc23)nc(N)n1` (stereo not drawn) [Compound A104, 1-{2-Amino-6-[5-(1-isopropyl-1H-pyrazol-4-yl)-1H-pyrrolo[2,3-b]pyridin-3-yl]-pyrimidin-4-yl}-3-methylbutan-1-ol], the figures for the negative-log IC50 (pIC50) (against PDK1; in experiment [1]) were 6.00 to 8.00 and 5.00 to 6.00, respectively.

`Nc1nc(-c2c[nH]c3ncccc23)cc(C2CCCCC2)n1` [Compound A105, 4-Cyclohexyl-6-(1H-pyrrolo[2,3-b]pyridin-3-yl)pyrimidin-2-ylamine]: the negative-log IC50 (pIC50) against PDK1 was 6.00 to 8.00; in experiment [1], 4.70 to 5.00.

As to `CC(C)n1cc(-c2cnc3[nH]cc(-c4cc(CCCn5ccnc5)nc(N)n4)c3c2)cn1` [Compound A108, 4-(3-Imidazol-1-ylpropyl)-6-[5-(1-isopropyl-1H-pyrazol-4-yl)-1H-pyrrolo-[2,3-b]pyridin-3-yl]pyrimidin-2-ylamine], the pIC50 against PDK1 is 6.00 to 8.00; in experiment [1] it was 4.70 to 5.00.

In the case of `CC(C)n1cc(-c2cnc3[nH]cc(-c4cc(CCn5ccnc5)nc(N)n4)c3c2)cn1` [Compound A110, 4-(2-Imidazol-1-ylethyl)-6-[5-(1-isopropyl-1H-pyrazol-4-yl)-1H-pyrrolo[2,3-b]-pyridin-3-yl]pyrimidin-2-ylamine], the pIC50 was 6.00 to 8.00 against PDK1 and 4.70 to 5.00 in experiment [1].

For `CC(C)n1cc(-c2cnc3[nH]cc(-c4cc(C5CCCCC5)nc(N)n4)c3c2)cn1` [Compound A111, 4-Cyclohexyl-6-[5-(1-isopropyl-1H-pyrazol-4-yl)-1H-pyrrolo[2,3-b]pyridin-3-yl]pyrimidin-2-ylamine], the figures for the pIC50 (against PDK1; in experiment [1]) were 6.00 to 8.00 and 5.00 to 6.00, respectively.

As for `Nc1nc(-c2c[nH]c3ncccc23)cc(C2(O)CCN(C(=O)OCc3ccccc3)CC2)n1` [Compound A113, 4-[2-Amino-6-(1H-pyrrolo[2,3-b]pyridin-3-yl)pyrimidin-4-yl]-4-hydroxypiperidine-1-carboxylic acid benzyl ester], the negative-log IC50 (pIC50) (on PDK1; in experiment [1]) was 5.00 to 6.00 each time.

On to `CC(C)N1CCC(O)(c2cc(-c3c[nH]c4ncc(-c5cnn(C(C)C)c5)cc34)nc(N)n2)CC1` [Compound A114, 4-{2-Amino-6-[5-(1-isopropyl-1H-pyrazol-4-yl)-1H-pyrrolo[2,3-b]pyridin-3-yl]-pyrimidin-4-yl}-1-isopropylpiperidin-4-ol], for which the figures for the pIC50 (on PDK1; in experiment [1]) were 6.00 to 8.00 and 4.70 to 5.00, respectively.

Consider `CC(C)n1cc(-c2cnc3[nH]cc(-c4cc(C(O)c5ccccc5)nc(N)n4)c3c2)cn1` (stereo not drawn) [Compound A115, {2-Amino-6-[5-(1-isopropyl-1H-pyrazol-4-yl)-1H-pyrrolo[2,3-b]pyridin-3-yl]-pyrimidin-4-yl}phenylmethanol], for which the pIC50 on PDK1 was 5.00 to 6.00; in experiment [1], 4.70 to 5.00.

On to `CC(C)n1cc(-c2cnc3[nH]cc(-c4cc(C5(O)CCN(CCc6ccc(F)cc6)CC5)nc(N)n4)c3c2)cn1` [Compound A116, 4-{2-Amino-6-[5-(1-isopropyl-1H-pyrazol-4-yl)-1H-pyrrolo[2,3-b]pyridin-3-yl]-pyrimidin-4-yl}-1-[2-(4-fluorophenyl)ethyl]piperidin-4-ol], for which the values for the pIC50 (against PDK1; in experiment [1]) were 6.00 to 8.00 and 4.70 to 5.00, respectively.

Regarding `CCc1cc(-c2c[nH]c3ncc(-c4cnn(C(C)C(=O)Nc5ccc6[nH]ccc6c5)c4)cc23)nc(N)n1` (stereo not drawn) [Compound A121, 2-{4-[3-(2-Amino-6-ethylpyrimidin-4-yl)-1H-pyrrolo[2,3-b]pyridin-5-yl]pyrazol-1-yl}-N-(1H-indol-5-yl)propionamide], the negative-log IC50 (pIC50) against PDK1 was 6.00 to 8.00; in experiment [1], 5.00 to 6.00.

With `CC(C)n1cc(-c2cnc3[nH]cc(-c4cc(C5(O)CCN(C(=O)OCc6ccccc6)CC5)nc(N)n4)c3c2)cn1` [Compound A122, 4-{2-Amino-6-[5-(1-isopropyl-1H-pyrazol-4-yl)-1H-pyrrolo[2,3-b]pyridin-3-yl]-pyrimidin-4-yl}-4-hydroxypiperidine-1-carboxylic acid benzyl ester], the pIC50 is 6.00 to 8.00 at PDK1 and 4.70 to 5.00 in experiment [1].
